Measured values reported in US20020169140A1, “Combination therapy for reduction of toxicity of chemotherapeutic agents” (priority 2001, published 2002).
Entries after “also recorded” stand apart in the source; their conditions may differ.

How the values were obtained:
[1] = system: lung adenocarcinoma cell line LXFA 526L; assay: Monolayer proliferation inhibition, modified propidium iodide assay; type: cell-based; settings: for In vitro activity (Test/Control %): 4 days exposure, median of 5 experiments; for tumour effects (words): circiliol alone at 3 μg/ml; for in vitro activity of the agent alone: single agent, stated for both cell lines
[2] = system: large cell lung cancer line LXFL 529L; assay: as above; type: cell-based; settings: for In vitro activity (Test/Control %): 4 days exposure, median of 5 experiments; for tumour effects (words): circiliol alone at 3 μg/ml; for in vitro activity of the agent alone: single agent, stated for both cell lines
[3] = LXFA 529L, 0 μg/ml circiliol, median of 2-5 experiments
[4] = LXFA 529L, +3 μg/ml circiliol, median of 2-5 experiments

Compound: COc1cc2oc(-c3ccc(O)c(O)c3)cc(=O)c2c(O)c1OC [Circiliol, 6,7-dimethoxy-5,3′4′-trihydroxyflavone]
- In vitro activity (Test/Control %) ([1]; LXFA 526L, circiliol 3 μg/ml): 93%
- In vitro activity (Test/Control %) ([1]; LXFA 526L, circiliol 30 μg/ml): 53%
- In vitro activity (Test/Control %) ([1]; LXFA 526L, circiliol 300 μg/ml): 55%
- tumour effects (words) [1]: inactive alone
- tumour effects (words) ([1]; listed as circiliol): no tumour effects
- inhibition of tumour growth in vitro ([1]; circiliol alone at 30 μg/ml): 50%
- antitumour activity in vitro ([1]; circiliol alone at <3 μg/ml): no antitumour activity
- in vitro activity of the agent alone [1]: only moderately active; also recorded: low activity
- In vitro activity (Test/Control %) ([2]; LXFA 529L, circiliol 3 μg/ml): 102%
- In vitro activity (Test/Control %) ([2]; LXFA 529L, circiliol 30 μg/ml): 49%
- In vitro activity (Test/Control %) ([2]; LXFA 529L, circiliol 300 μg/ml): 39%
- tumour effects (words) [2]: inactive alone
- tumour effects (words) ([2]; listed as circiliol): no tumour effects
- inhibition of tumour growth in vitro ([2]; circiliol alone at 30 μg/ml): 50%
- antitumour activity in vitro ([2]; circiliol alone at <3 μg/ml): no antitumour activity
- in vitro activity of the agent alone [2]: only moderately active; also recorded: low activity

Compound: Nc1ccn([C@@H]2O[C@H](CO)[C@@H](O)C2(F)F)c(=O)n1 [gemcitabine, 2′, 2′-diflouro-2′-deoxycytidine, reference compound]
- IC70 of gemcitabine alone ([1]; LXFA 526L, 0 μg/ml circiliol, median of 2-5 experiments): 5.6 µg/mL
- IC70 of gemcitabine alone ([1]; LXFA 526L, 0 μg/ml circiliol, median of 2-5 experiments, listed as Gemcitabine): 5.7 µg/mL
- IC50 ([1]; LXFA 526L, 0 μg/ml circiliol, median of 2-5 experiments, read-out: IC50 of gemcitabine alone): 0.63 µg/mL
- IC70 of gemcitabine in combination with circiliol ([1]; LXFA 526L, +3 μg/ml circiliol, median of 2-5 experiments): 0.87 µg/mL
- IC70 of gemcitabine in combination with circiliol ([1]; LXFA 526L, +30 μg/ml circiliol, median of 2-5 experiments): 0.58 µg/mL
- fold increase of antitumour activity of gemcitabine (IC70 shift) ([1]; LXFA 526L, with 30 μg/ml circiliol): 10 fold
- in vitro activity of the agent alone [1]: potently active
- IC50 of gemcitabine alone [2, 3]: 0.355 µg/mL
- IC70 of gemcitabine alone [2, 3]: 0.64 µg/mL
- IC50 of gemcitabine in combination with circiliol [2, 4]: 0.039 µg/mL
- IC70 of gemcitabine in combination with circiliol [2, 4]: 0.076 µg/mL
- fold increase of antitumour activity of gemcitabine (IC70 shift) ([2]; LXFA 529L, with 30 μg/ml circiliol): 19 fold
- IC50 ([2]; LXFL 529L, LXFA 529L, 0 μg/ml circiliol, median of 2-5 experiments, read-out: IC50 of gemcitabine alone): 0.36 µg/mL
- in vitro activity of the agent alone [2]: potently active
